Measured values from publication PMC7822176, “Pursuing the Complexity of Alzheimer’s Disease: Discovery of Fluoren-9-Amines as Selective Butyrylcholinesterase Inhibitors and N-Methyl-D-Aspartate Receptor Antagonists” (Biomolecules, 2020).
Where a name gives a salt, the structure may show the parent alone. Read-outs that look alike come from different tables or passages of the source.

Experiments:
GluN1/GluN2B receptors = molecular target: T1, GluN1/GluN2B receptors (Homo sapiens, UniProt Q05586+Q13224); test: cell-based; settings: for inhibition at 10 µM: HEK293, read-out: RI (%) ± SEM GluN1/GluN2B
T1 construct: expressed in transfected cells; host or cells: HEK293
Method: (§1) The cells grown in a 24-well plate were put in Opti-MEM I media containing a mixture of 0.9 µL of MATra-A Reagent (IBA) and 900 ng of DNA vectors carrying the human versions of the GluN1-1a (GluN1), GluN2A, or GluN2B subunits and green fluorescent protein (GFP; all vectors were added in equal ratio). The cells were placed on a strong magnet plate for 30 min and then trypsinized; resuspended in Opti-MEM I containing 1% FBS, 20-mM MgCl2, and 3-mM kynurenic acid (to inhibit the NMDAR-induced excitotoxicity); and plated on poly-L-lysine-coated glass coverslips. The electrophysiological experiments were executed 24–48 h after transfection.
(§2) Whole-cell patch-clamp recordings were conducted at room temperature on the GFP-positive HEK293 cells using an Axopatch 200B amplifier (Molecular Devices, San Jose, CA, USA); the series resistance compensation was >80% for all cells. […] The WAS02 application system, which can reach the solution exchange time around the recorded cell of 10–20 ms, was used to apply the extracellular solution (ECS).

GluN1/GluN2A receptors = molecular target: T2, GluN1/GluN2A receptors (Homo sapiens, UniProt Q05586+Q12879); test: cell-based; settings: for inhibition at 10 µM: HEK293, read-out: RI (%) ± SEM GluN1/GluN2A
T2 construct: expressed in transfected cells; host or cells: HEK293
Method: as §1, §2

[1] = MTT cell viability assay, CHO-K1; assay type: cell-based; settings: Chinese hamster, CHO-K1 cells, 24 h exposure, mean of three independent measurements, read-out: IC50 ± SEM CHO-K1 cell viability
Method: (§3) Standard MTT assay (3-(4,5-dimethylthiazol-2-yl)-2,5-diphenyltetrazolium bromide; Sigma Aldrich, Prague, Czech Republic) was used according to the manufacturer’s protocols on the CHO-K1 (Chinese hamster ovary, ECACC, Salisbury, UK) and hCMEC/D3 (Sigma Aldrich, St. Louis, MO, USA). The cells were cultured according to recommended conditions and seeded in a density of 8000 cells per well, as described previously. […] CHO-K1 cells were exposed to serially diluted tested compounds for 24 h. Then, the medium was replaced by a fresh medium containing 0.5 mg/mL of MTT, and the cells were allowed to produce formazan for another approximately 3 h under surveillance. Thereafter, the medium with MTT was removed, and crystals of formazan were dissolved in DMSO (100 µL/well; PENTA s.r.o., Prague, Czech Republic). Cell viability was assessed spectrophotometrically by the amount of formazan produced. The absorbance was measured at 570 nm with a 650-nm reference wavelength on Synergy HT (BioTek, Winooski, VT, USA). The IC50 value (half-maximal inhibitory concentration) was calculated from the control-subtracted triplicates using nonlinear regression (four parameters) by GraphPad Prism 7.03 software (GraphPad Software Inc., San Diego, CA, USA) for the CHO-K1 cell line, and for hCMEC/D3 cells, the cell viability was expressed as the % relative to the untreated control. Final IC50 and SEM (standard error of the mean) values were obtained as a mean of three independent measurements.

hBChE = molecular target: T3, hBChE (Homo sapiens, UniProt P06276); test: biochemical; assay type: biochemical
T3 construct: made in house
Method: The human recombinant BChE and AChE were prepared at the Department of Toxicology and Military Pharmacy (Faculty of Military Health Sciences, Hradec Kralove, Czech Republic). 5,5′-dithiobis(2-nitrobenzoic acid) (Ellman’s reagent, DTNB), phosphate buffer (PB, pH 7.4), acetylthiocholine (ATC), and butyrylthiocholine (BTC) were purchased from Sigma-Aldrich, Prague, Czech Republic. For measuring purposes, polystyrene Nunc 96-well microplates with a flat bottom shape (Thermo Fisher Scientific, Waltham, MA, USA) were utilized. All the assays were carried out in 0.1-M KH2PO4/K2HPO4 buffer, pH 7.4. Enzyme solutions were prepared at 2.0 units/mL in 2-mL aliquots. […] Tested compounds were preincubated for 5 min. The reaction was started by the immediate addition of 20 µL of the substrate. […] Each concentration was assayed in triplicate. Software GraphPad Prism 5 (San Diego, CA, USA) was used for the statistical data evaluation.

hCMEC/D3 cell monolayer = test: in vitro; settings: for potential of BBB permeation (in words): Papp correlated to reference drugs
Method: (§4) The D3 assay evaluates the ability of compounds to diffuse from the donor compartment through the D3/hCMEC cell membrane into the acceptor compartment. The D3 cells were seeded on a PET membrane (area 1.12 cm^2) with 3-µm pores of the 12-well plates with 12-mm inserts. […] The donor solution (750 µL) was added to the donor compartment (insert), and the same volume of Opti-MEM was added into the acceptor. The concentration of the drug in both compartments was measured by UV-VIS spectrophotometry in 5, 15, 30, and 60 min of incubation in triplicates. The apparent permeability coefficient (Papp) was calculated from the concentration ratios. Tightness of the D3 monolayer was conducted by the fluorescein isothiocyanate (FITC) test after each experiment. […] (1) Papp= dC/dt × Vr/A × C0 • A: area of the well/cell monolayer, • dC/dt: amount in the receiver compartment in given time, • Vr: volume of the receiver compartment, and • C0: the initial concentration of tested compounds.

in vitro = settings: human
Method: as §4

[2] = MTT cell viability test, hCMEC/D3; assay type: cell-based; settings: human, hCMEC/D3 cells, read-out: % viable cells hCMEC/D3
Method: as §3, with “The IC50 value (half-maximal inhibitory concentration) was calculated from the control-subtracted triplicates using nonlinear regression (four parameters) by GraphPad Prism 7.03 software (GraphPad Software Inc., San Diego, CA, USA) for the CHO-K1 cell line, and for hCMEC/D3 cells, the cell viability was expressed as the % relative to the untreated control.” left out

[3] = mean of at least three experiments, read-out: IC50 ± SEM hBChE
[4] = final prediction from Papp correlated to reference drugs

T3 sequence (P06276 29-602): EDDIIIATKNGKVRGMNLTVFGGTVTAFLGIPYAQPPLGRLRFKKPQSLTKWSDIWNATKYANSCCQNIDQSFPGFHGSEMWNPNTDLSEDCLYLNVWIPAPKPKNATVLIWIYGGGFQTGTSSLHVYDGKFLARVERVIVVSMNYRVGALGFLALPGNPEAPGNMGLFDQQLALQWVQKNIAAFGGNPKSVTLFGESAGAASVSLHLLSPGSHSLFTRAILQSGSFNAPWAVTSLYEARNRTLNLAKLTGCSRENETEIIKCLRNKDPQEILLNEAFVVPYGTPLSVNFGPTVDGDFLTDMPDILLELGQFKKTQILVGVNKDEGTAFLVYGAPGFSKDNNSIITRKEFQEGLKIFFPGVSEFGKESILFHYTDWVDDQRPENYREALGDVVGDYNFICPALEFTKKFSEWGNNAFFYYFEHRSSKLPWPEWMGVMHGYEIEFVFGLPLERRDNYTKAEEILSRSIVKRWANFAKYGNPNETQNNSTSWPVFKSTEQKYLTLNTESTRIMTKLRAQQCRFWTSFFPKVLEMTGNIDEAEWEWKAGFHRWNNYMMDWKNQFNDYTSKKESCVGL
T1 sequence (Q13224 27-1484, other chains not shown): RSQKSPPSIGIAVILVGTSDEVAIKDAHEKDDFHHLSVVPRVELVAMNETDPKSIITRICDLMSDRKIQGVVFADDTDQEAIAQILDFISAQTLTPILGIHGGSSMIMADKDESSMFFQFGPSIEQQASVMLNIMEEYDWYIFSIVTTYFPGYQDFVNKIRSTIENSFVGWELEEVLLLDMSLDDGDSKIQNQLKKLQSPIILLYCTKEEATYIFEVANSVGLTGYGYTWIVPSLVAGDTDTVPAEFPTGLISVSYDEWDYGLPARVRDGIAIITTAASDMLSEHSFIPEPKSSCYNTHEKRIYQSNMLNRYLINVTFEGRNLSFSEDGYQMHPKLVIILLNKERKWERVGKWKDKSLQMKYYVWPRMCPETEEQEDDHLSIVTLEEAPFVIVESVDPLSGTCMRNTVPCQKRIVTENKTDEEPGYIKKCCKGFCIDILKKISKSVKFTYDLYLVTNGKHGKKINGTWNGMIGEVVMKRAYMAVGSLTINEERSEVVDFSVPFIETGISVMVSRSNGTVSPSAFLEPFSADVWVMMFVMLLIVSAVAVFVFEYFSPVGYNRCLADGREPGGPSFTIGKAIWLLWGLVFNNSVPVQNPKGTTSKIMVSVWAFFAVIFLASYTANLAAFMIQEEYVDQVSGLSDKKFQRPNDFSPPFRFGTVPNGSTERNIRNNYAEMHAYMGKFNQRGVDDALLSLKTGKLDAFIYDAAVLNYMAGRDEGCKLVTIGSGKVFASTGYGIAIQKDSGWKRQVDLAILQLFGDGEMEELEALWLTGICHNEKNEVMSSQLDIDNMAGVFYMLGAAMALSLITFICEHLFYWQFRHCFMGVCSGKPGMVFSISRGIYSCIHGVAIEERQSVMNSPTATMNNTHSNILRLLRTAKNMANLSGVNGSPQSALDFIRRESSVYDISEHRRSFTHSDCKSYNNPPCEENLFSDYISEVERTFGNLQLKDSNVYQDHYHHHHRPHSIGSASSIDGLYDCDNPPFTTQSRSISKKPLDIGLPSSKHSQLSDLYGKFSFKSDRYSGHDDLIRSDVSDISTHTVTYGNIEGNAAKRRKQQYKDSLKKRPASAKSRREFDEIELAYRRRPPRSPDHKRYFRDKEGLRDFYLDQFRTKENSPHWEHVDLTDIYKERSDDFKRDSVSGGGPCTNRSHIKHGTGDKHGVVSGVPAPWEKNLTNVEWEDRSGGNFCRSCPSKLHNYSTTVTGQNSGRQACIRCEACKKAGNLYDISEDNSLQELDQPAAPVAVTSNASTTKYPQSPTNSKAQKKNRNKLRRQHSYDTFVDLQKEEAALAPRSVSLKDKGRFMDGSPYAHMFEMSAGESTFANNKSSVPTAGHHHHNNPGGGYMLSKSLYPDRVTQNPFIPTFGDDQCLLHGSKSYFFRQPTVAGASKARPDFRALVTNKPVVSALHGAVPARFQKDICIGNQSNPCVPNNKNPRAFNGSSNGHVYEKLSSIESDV
T2 sequence (Q12879 23-1464, other chains not shown): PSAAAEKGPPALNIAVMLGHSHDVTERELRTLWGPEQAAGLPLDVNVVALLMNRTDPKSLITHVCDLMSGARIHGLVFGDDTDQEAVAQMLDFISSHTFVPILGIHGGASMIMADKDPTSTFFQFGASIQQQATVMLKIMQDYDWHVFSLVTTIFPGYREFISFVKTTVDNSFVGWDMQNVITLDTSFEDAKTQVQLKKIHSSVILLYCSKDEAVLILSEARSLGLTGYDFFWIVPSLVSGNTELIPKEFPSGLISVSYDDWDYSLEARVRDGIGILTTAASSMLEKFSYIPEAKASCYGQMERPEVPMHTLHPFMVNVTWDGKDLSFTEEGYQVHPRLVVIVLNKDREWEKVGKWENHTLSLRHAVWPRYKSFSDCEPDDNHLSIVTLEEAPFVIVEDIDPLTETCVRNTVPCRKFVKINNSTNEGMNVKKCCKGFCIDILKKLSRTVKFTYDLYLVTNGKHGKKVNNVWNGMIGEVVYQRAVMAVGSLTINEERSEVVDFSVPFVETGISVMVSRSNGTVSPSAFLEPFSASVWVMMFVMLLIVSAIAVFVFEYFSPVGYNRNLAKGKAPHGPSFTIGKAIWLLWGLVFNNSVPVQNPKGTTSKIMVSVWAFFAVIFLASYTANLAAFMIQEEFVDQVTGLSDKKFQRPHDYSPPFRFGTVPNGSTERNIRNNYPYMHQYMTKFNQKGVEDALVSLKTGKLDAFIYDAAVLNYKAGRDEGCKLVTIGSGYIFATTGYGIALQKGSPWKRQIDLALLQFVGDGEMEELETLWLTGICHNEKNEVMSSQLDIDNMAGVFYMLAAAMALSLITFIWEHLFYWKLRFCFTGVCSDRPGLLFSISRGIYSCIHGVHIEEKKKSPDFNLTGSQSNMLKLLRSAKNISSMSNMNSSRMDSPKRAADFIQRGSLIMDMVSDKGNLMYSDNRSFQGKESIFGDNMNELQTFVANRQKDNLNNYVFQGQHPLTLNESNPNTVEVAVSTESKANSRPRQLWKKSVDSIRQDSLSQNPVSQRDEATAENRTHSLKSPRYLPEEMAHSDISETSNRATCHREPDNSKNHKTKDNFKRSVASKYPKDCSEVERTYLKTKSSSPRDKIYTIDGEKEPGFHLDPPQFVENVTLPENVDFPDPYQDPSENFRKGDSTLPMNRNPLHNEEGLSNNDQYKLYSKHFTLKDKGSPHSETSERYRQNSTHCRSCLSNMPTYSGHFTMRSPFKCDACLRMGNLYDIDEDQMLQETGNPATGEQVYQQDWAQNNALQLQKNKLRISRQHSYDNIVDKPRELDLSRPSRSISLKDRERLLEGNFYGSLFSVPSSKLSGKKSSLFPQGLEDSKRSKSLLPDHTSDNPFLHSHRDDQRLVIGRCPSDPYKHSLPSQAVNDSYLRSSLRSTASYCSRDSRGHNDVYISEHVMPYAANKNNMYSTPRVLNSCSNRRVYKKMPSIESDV

Row | SMILES | inhibition at 10 µM (GluN1/GluN2B receptors) | inhibition at 10 µM (GluN1/GluN2A receptors) | IC50 at 24 h [1] | IC50 (hBChE; [3]) | Papp (in vitro) | further results
1 | CCN1CCN(C2c3ccccc3-c3ccccc32)CC1 [Compound 3k, 1-(9H-fluorene-9-yl)-4-ethylpiperazine dihydrochloride] | 19.1 ± 1.48% | 32.1 ± 1.01% | 239 ± 35 µM | 12.8 ± 0.3 µM | – | –
2 | COCCNC1c2ccccc2-c2ccccc21 [Compound 3g, N-(2-methoxyethyl)-9H-fluoren-9-amine hydrochloride] | 6.76 ± 1% | 18.7 ± 1.98% | 738 ± 1 µM | 2.56 ± 0.11 µM | – | –
3 | CCCCNC1c2ccccc2-c2ccccc21.Cl [Compound 3m, N-Butyl-9H-fluoren-9-amine hydrochloride] | 51.2 ± 3.24% | 36.2 ± 3.73% | 140 ± 15 µM | 1.02 ± 0.03 µM | 18.5 ± 2.37 ×10⁻⁶ cm/s | h 40 mV GluN1/GluN2B (Hill coefficient) (GluN1/GluN2B receptors; 40 mV): 0.97 ± 0.10; IC50 (GluN1/GluN2B receptors; 40 mV, read-out: IC50 40 mV GluN1/GluN2B): 221 ± 12.2 µM; h −60 mV GluN1/GluN2B (Hill coefficient) (GluN1/GluN2B receptors; −60 mV): 1.12 ± 0.05; IC50 (GluN1/GluN2B receptors; −60 mV, read-out: IC50 −60 mV GluN1/GluN2B): 11.7 ± 1.72 µM; h 40 mV GluN1/GluN2A (Hill coefficient) (GluN1/GluN2A receptors; 40 mV): 1.23 ± 0.13; IC50 (GluN1/GluN2A receptors; 40 mV, read-out: IC50 40 mV GluN1/GluN2A): 114 ± 26.6 µM; h −60 mV GluN1/GluN2A (Hill coefficient) (GluN1/GluN2A receptors; −60 mV): 1.19 ± 0.14; IC50 (GluN1/GluN2A receptors; −60 mV, read-out: IC50 −60 mV GluN1/GluN2A): 14.2 ± 1.6 µM; potential of BBB permeation (in words) (hCMEC/D3 cell monolayer): corresponds to those of standard drugs with high CNS permeability; CNS (+/−) (hCMEC/D3 cell monolayer; [4]): CNS +; viability at 50 µM [2]: 82.1%; viability at 100 µM [2]: 80.1%
4 | CC(C)NC1c2ccccc2-c2ccccc21 [Compound 3a, N-Propan-2-yl-9H-fluoren-9-amine hydrochloride] | 25 ± 1.82% | 33.3 ± 1.66% | 387 ± 32 µM | – | – | –
5 | CNC1c2ccccc2-c2ccccc21 [Compound 3b, N-Methyl-9H-fluoren-9-amine hydrochloride] | 18 ± 0.78% | 36.2 ± 2.16% | 427 ± 12 µM | 8.91 ± 0.31 µM | – | –
6 | O/N=C/c1cc[n+](COC[n+]2ccc(/C=N/O)cc2)cc1 [Obidoxime, reference compound] | – | – | – | – | 14.3 ± 0.52 ×10⁻⁶ cm/s | CNS (+/−) (hCMEC/D3 cell monolayer; [4]): CNS −
7 | CN1CCN(C2c3ccccc3-c3ccccc32)CC1 [Compound 3j, 1-(9H-fluorene-9-yl)-4-methylpiperazine dihydrochloride] | 21.9 ± 2.1% | 29.1 ± 2.85% | 259 ± 12 µM | – | – | IC50 (hBChE): 23.5 ± 0.8 µM
8 | CC12CC3CC(C)(C1)CC(N)(C3)C2 [Memantine, memantine, reference compound] | – | – | – | – | – | h 40 mV GluN1/GluN2B (Hill coefficient) (GluN1/GluN2B receptors): 0.84 ± 0.04; h −60 mV GluN1/GluN2B (Hill coefficient) (GluN1/GluN2B receptors): 1.04 ± 0.03; h 40 mV GluN1/GluN2A (Hill coefficient) (GluN1/GluN2A receptors): 1.16 ± 0.05; h −60 mV GluN1/GluN2A (Hill coefficient) (GluN1/GluN2A receptors): 1.04 ± 0.06
9 | CC(C)NCC(O)COc1cccc2ccccc12 (centres unmarked) [Propranolol, reference compound] | – | – | – | – | 23.1 ± 2.06 ×10⁻⁶ cm/s | CNS (+/−) (hCMEC/D3 cell monolayer; [4]): CNS +
10 | Cc1cc(=O)n(-c2ccccc2)n1C [Antipyrine, reference compound] | – | – | – | – | 17.2 ± 1.82 ×10⁻⁶ cm/s | CNS (+/−) (hCMEC/D3 cell monolayer; [4]): CNS +
11 | CC(C)CNC1c2ccccc2-c2ccccc21.Cl [Compound 3n, N-(2-methylpropyl)-9H-fluoren-9-amine hydrochloride] | 49.7 ± 1.72% | 37.9 ± 2.43% | 236 ± 24 µM | – | 14.6 ± 1.88 ×10⁻⁶ cm/s | potential of BBB permeation (in words) (hCMEC/D3 cell monolayer): low potential to passively pass the BBB; CNS (+/−) (hCMEC/D3 cell monolayer; [4]): CNS −; viability at 50 µM [2]: 98.2%; viability at 100 µM [2]: 92.7%
12 | CCN(C)C(=O)Oc1cccc([C@H](C)N(C)C)c1 [Rivastigmine, reference compound] | – | – | – | – | 28.6 ± 4.64 ×10⁻⁶ cm/s | CNS (+/−) (hCMEC/D3 cell monolayer): CNS +
13 | c1ccc2c(c1)-c1ccccc1C2N1CCCC1 [Compound 3o, 1-(9H-fluoren-9-yl)pyrrolidine hydrochloride] | 32.4 ± 2.99% | 27.8 ± 1.74% | 413 ± 15 µM | 1.8 ± 0.06 µM | – | –
14 | CCNC1c2ccccc2-c2ccccc21 [Compound 3h, N-Ethyl-9H-fluoren-9-amine hydrochloride] | 17.5 ± 2.46% | 26.9 ± 2.14% | 417 ± 16 µM | 6.58 ± 0.19 µM | – | –
15 | c1ccc2c(c1)-c1ccccc1C2N1CCCCC1 [Compound 3f, 1-(9H-fluoren-9-yl)piperidine hydrochloride] | 19.4 ± 2.65% | 33 ± 1.96% | 872 ± 10 µM | 2.13 ± 0.06 µM | – | –
16 | CCN(CC)C1c2ccccc2-c2ccccc21 [Compound 3i, N,N-Diethyl-9H-fluoren-9-amine hydrochloride] | 20.1 ± 2.82% | 25.7 ± 1.92% | 266 ± 3 µM | 5.38 ± 0.11 µM | – | –
17 | c1ccc2c(c1)-c1ccccc1C2N1CCOCC1 [Compound 3l, 4-(9H-fluorene-9-yl)morpholine hydrochloride] | 11.6 ± 0.52% | 14.9 ± 1.76% | > 800 µM | 54.7 ± 1.9 µM | – | –
18 | c1ccc2c(c1)-c1ccccc1C2NC1CC1 [Compound 3d, N-Cyclopropyl-9H-fluoren-9-amine hydrochloride] | 14.3 ± 0.35% | 26.6 ± 0.85% | 353 ± 32 µM | 6.42 ± 0.22 µM | – | –
